According to US12544463B2, “Deuterium substituted positron emission tomography (PET) imaging agents and their pharmacological application” (Five Eleven Pharma Inc., priority 2017, dated 2026):
Where two headings read alike, the source gives them in different places. Blank lines part the entries; values can stand above or below the compound they belong to.

Tests used:
[1] = molecular target: T1, Aβ plaques in AD brain tissue homogenates (Homo sapiens, UniProt P05067); conditions: cited from earlier work; for Ki: read-out: inhibition constant Ki
T1 construct: host or cells: AD brain tissue homogenate

[2] = molecular target: T2, Aβ aggregates of human AD brain homogenates (Homo sapiens, UniProt P05067); assay: In vitro binding assay for Aβ aggregates of human AD brain homogenates; conditions: for Ki: Avg ± SD, n = 3, read-out: Ki of cold competing drug; for Kd: value used in Cheng-Prusoff equation
T2 construct: from tissue; host or cells: human Alzheimer's disease brain homogenate
Description: Competitive binding assays were performed in 12×75 mm borosilicate glass tubes. The reaction mixture contained 100 μL of AD brain homogenates (20-25 μg), 100 μL of [^18F]AV-45 or [^18F]AV-45-D3 (˜150,000 cpm), and 100 μL of competing compounds (10^−5 to 10^−10 M diluted serially in PBS containing 0.1% bovine serum albumin) in a final volume of […]. Nonspecific binding was defined in the presence of 1 μM of IMPY (6-iodo-2-(4′-dimethylamino-)phenyl-imidazo[1,2-a]pyridine) in the same assay tubes. The mixture was incubated for 60 min at room temperature, and the bound and the free radioactivity were separated by vacuum filtration through Whatman GF/B filters using a Brandel M-24R cell harvester, followed by washing with PBS buffer three times. The radioactivity on the filters was counted with a gamma counter (Wizard^2, Perkin-Elmer). Data were analyzed using the nonlinear least-square curve fitting program LIGAND to determine IC50.

[3] = cited from earlier work; for Biodistribution Blood / Biodistribution Bone / Biodistribution Brain / Biodistribution Liver / Biodistribution Muscle: normal male mice, Choi, 2009
[4] = cited from earlier work
[5] = humans, cited from earlier work
[6] = molecular target: T3, vesicular monoamine transporter 2 (VMAT2) (Rattus norvegicus, UniProt Q01827); assay: In vitro binding assay for Ki determination, rat striatum homogenates; conditions: for Ki: Avg ± SD, n = 3, read-out: Ki of cold competing drug; for Kd: value used in Cheng-Prusoff equation
T3 construct: Tissue homogenates of striatum (dissected from rat brain) were prepared; from tissue; host or cells: rat brain striatum homogenate
Description: Tissue homogenates of striatum (dissected from rat brain) were prepared in 50 mM of HEPES, pH 7.5, and 0.3 M of sucrose. Compounds were examined for their ability to compete for the binding of ^18F-AV-133 or ^18F-AV-133-D6 (^18F-Ia) (0.15-0.2 nM) at concentrations ranging from 10^−7 to 10^−12 M. The binding assays were performed in glass tubes (12×75 mm) in a final volume of 0.25 mL. […] After incubation for 90 min at room temperature, the bound ligand was separated from the free ligand by filtration through glass fiber filters. The filters were washed three times with 4 mL of ice-cold PBS buffer, pH 7.4 and the radioactivity on the filters was counted with a gamma counter (WIZARD^2, Perkin-Elmer).

T1 sequence (P05067 672-713 limits assumed): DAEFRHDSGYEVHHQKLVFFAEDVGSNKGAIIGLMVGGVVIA
T2 sequence (P05067 672-713 limits assumed): as above
T3 sequence (Q01827 whole entry): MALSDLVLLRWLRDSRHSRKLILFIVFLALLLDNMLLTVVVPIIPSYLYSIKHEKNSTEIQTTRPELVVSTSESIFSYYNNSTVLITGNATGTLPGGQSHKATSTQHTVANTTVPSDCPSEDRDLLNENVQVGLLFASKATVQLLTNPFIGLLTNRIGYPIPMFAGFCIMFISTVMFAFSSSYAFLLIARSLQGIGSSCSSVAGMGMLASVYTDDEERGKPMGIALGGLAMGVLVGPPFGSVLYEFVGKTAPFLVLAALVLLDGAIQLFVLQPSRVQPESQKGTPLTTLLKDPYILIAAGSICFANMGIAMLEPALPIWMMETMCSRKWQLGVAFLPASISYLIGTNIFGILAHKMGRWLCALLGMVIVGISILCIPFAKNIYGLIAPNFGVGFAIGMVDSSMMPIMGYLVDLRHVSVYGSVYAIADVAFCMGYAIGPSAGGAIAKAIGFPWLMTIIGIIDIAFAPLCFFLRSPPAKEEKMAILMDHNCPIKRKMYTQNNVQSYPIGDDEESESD

Structure (SMILES): CNc1ccc(/C=C/c2ccc(OCCOCCOCCF)nc2)cc1 [^18F-AV-45]
- initial brain uptake relative to metabolite ^18F-AV-160 ([3]; mice, initial uptake): 1.5 fold
- Biodistribution Blood ([3]; 2 min): 2.51 ± 0.31 % Dose/g
- Biodistribution Bone ([3]; 2 min): 1.33 ± 0.24 % Dose/g
- Biodistribution Brain ([3]; 2 min): 7.33 ± 1.54 % Dose/g
- Biodistribution Liver ([3]; 2 min): 16.3 ± 5.38 % Dose/g
- Biodistribution Muscle ([3]; 2 min): 3.49 ± 0.33 % Dose/g
- Biodistribution Blood ([3]; 60 min): 2.37 ± 0.27 % Dose/g
- Biodistribution Bone ([3]; 60 min): 3.66 ± 0.30 % Dose/g
- Biodistribution Brain ([3]; 60 min): 1.88 ± 0.14 % Dose/g
- Biodistribution Liver ([3]; 60 min): 11.1 ± 1.83 % Dose/g
- Biodistribution Muscle ([3]; 60 min): 1.33 ± 0.08 % Dose/g
- Biodistribution Blood ([3]; 120 min): 1.96 ± 0.23 % Dose/g
- Biodistribution Bone ([3]; 120 min): 6.48 ± 0.34 % Dose/g
- Biodistribution Brain ([3]; 120 min): 1.80 ± 0.20 % Dose/g
- Biodistribution Liver ([3]; 120 min): 8.96 ± 0.28 % Dose/g
- Biodistribution Muscle ([3]; 120 min): 1.02 ± 0.07 % Dose/g
- Biodistribution Blood ([3]; 180 min): 1.39 ± 0.13 % Dose/g
- Biodistribution Bone ([3]; 180 min): 7.83 ± 1.08 % Dose/g
- Biodistribution Brain ([3]; 180 min): 1.48 ± 0.15 % Dose/g
- Biodistribution Liver ([3]; 180 min): 5.39 ± 0.31 % Dose/g
- Biodistribution Muscle ([3]; 180 min): 0.78 ± 0.09 % Dose/g
- parent remained in the plasma ([4]; mice, 30 min after intravenous injection): 30%
- biologic T1/2 in mouse plasma ([4]; mouse plasma, estimated): less than 30 min
- decrease of plasma radioactivity ([5]; within 10 min of the injection): approximately 80%
- decrease of plasma radioactivity ([5]; within 20 min of the injection): approximately 90%

Structure (SMILES): Nc1ccc(/C=C/c2ccc(OCCOCCOCC[18F])nc2)cc1 [^18F-AV-160]
- brain uptake ([3]; mice, 2 min after injection): 4.5 % ID/g
- brain uptake ([3]; mice, 60 min): 1.8 % ID/g
- share of the plasma metabolites ([4]; mice, 30 min after injection): about 48%

Structure (SMILES): Nc1ccc(C=Cc2ccc(OCCOCCOCCF)nc2)cc1 [AV-160]
- reduction of binding affinity vs nonradioactive AV-45 [1]: ≥ 20 fold
- Ki [1]: 54 ± 5 nM

Continued, in another order:

- Ki ([2]; hot ligand ^18F-AV-45-D3): 3.24 ± 0.76 nM
- Ki ([2]; hot ligand ^18F-AV-45): 4.02 ± 0.22 nM
- Kd [2]: 3.51 nM
Structure (SMILES): CNc1ccc(/C=C/c2ccc(OCCOCCOCCF)nc2)cc1 [AV-45, reference compound]
- Ki [1]: 2.87 ± 0.17 nM

- Ki ([2]; hot ligand ^18F-AV-45-D3): 3.25 ± 0.82 nM
- Ki ([2]; hot ligand ^18F-AV-45): 3.44 ± 1.22 nM
- Kd [2]: 3.51 nM
Structure (SMILES): [2H]C([2H])([2H])Nc1ccc(/C=C/c2ccc(OCCOCCOCCF)nc2)cc1 [AV-45-D3, IIa1]

- Ki ([2]; hot ligand ^18F-AV-45-D3): 4.15 ± 0.75 nM
- Ki ([2]; hot ligand ^18F-AV-45): 3.35 ± 0.88 nM
Structure (SMILES): [2H]C([2H])([2H])Nc1ccc(/C=C/c2ccc(OCCOCCOCCF)cc2)cc1 [AV-1-D3, IIa2]

- Ki ([6]; hot ligand ^18F-AV-133-D6): 0.26 ± 0.03 nM
- Ki ([6]; hot ligand ^18F-AV-133): 0.33 ± 0.02 nM
- Kd [6]: 0.11 nM
Structure (SMILES): COc1cc2c(cc1OCCCF)CCN1C[C@@H](CC(C)C)[C@H](O)C[C@H]21 [AV-133, reference compound]

- Ki ([6]; hot ligand ^18F-AV-133-D6): 0.33 ± 0.06 nM
- Ki ([6]; hot ligand ^18F-AV-133): 0.32 ± 0.07 nM
- Kd [6]: 0.11 nM
Structure (SMILES): [2H]C([2H])(F)C([2H])([2H])C([2H])([2H])Oc1cc2c(cc1OC)[C@H]1C[C@@H](O)[C@H](CC(C)C)CN1CC2 [Ia (AV-133-D6), (2R,3R,11R)-9-(3-Fluoropropoxy-[1,1,2,2,3,3-D6])-3-isobutyl-10-methoxy-2,3,4,6,7,11b-hexahydro-1H-pyrido[2,1-a]isoquinolin-2-ol]
